Results taken from the NIST ThermoML archive (doi:10.1021/je500381c).
± gives the expanded uncertainty stated by the source.

Columns and labels:
[1] = refractive index (Na D-line) (dimensionless); conditions: 101.33 kPa, Liquid, Standard Abbe refractometry
[2] = for viscosity / mass density: 100 kPa, Liquid; for mass density: Vibrating tube method; for surface tension liquid-gas: Drop volume
[3] = refractive index (Na D-line) (dimensionless); xn = mol fraction of the nth substance listed; conditions: 100 kPa, Liquid, Standard Abbe refractometry, x1 = 1
[4] = xn = mol fraction of the nth substance listed; conditions: x1 = 1; for mass density / viscosity: 100 kPa, Liquid; for mass density: Vibrating tube method; for surface tension liquid-gas: Drop volume

Structure (SMILES): OCC1CCCCC1 [cyclohexylmethanol]
- refractive index ([1]; 293.15 K): 1.4629 ± 0.001
- refractive index ([1]; 298.15 K): 1.4612 ± 0.001
- refractive index ([1]; 303.15 K): 1.4592 ± 0.001
- refractive index ([1]; 313.15 K): 1.455 ± 0.001
- refractive index ([1]; 323.15 K): 1.4507 ± 0.001
- refractive index ([1]; 333.15 K): 1.4463 ± 0.001
- viscosity ([2]; 293.15 K): 37.75 ± 0.59 mPa·s
- mass density ([2]; 293.15 K): 929.76 ± 0.13 kg/m3
- surface tension liquid-gas ([2]; 298.15 K): 32.43 ± 0.18 mN/m
- viscosity ([2]; 298.15 K): 28.67 ± 0.45 mPa·s
- mass density ([2]; 298.15 K): 926.25 ± 0.13 kg/m3
- viscosity ([2]; 303.15 K): 22.34 ± 0.35 mPa·s
- mass density ([2]; 303.15 K): 922.71 ± 0.13 kg/m3
- viscosity ([2]; 308.15 K): 17.57 ± 0.28 mPa·s
- mass density ([2]; 308.15 K): 919.14 ± 0.13 kg/m3
- viscosity ([2]; 313.15 K): 14.09 ± 0.22 mPa·s
- mass density ([2]; 313.15 K): 915.53 ± 0.13 kg/m3
- viscosity ([2]; 318.15 K): 11.43 ± 0.18 mPa·s
- mass density ([2]; 318.15 K): 911.88 ± 0.13 kg/m3
- viscosity ([2]; 323.15 K): 9.354 ± 0.15 mPa·s
- mass density ([2]; 323.15 K): 908.19 ± 0.13 kg/m3
- viscosity ([2]; 328.15 K): 7.766 ± 0.12 mPa·s
- mass density ([2]; 328.15 K): 904.45 ± 0.13 kg/m3
- viscosity ([2]; 333.15 K): 6.462 ± 0.1 mPa·s
- mass density ([2]; 333.15 K): 900.67 ± 0.13 kg/m3

Structure (SMILES): CCCCCCCO [heptan-1-ol]
- refractive index ([1]; 293.15 K): 1.4236 ± 0.001
- refractive index ([1]; 298.15 K): 1.422 ± 0.001
- refractive index ([1]; 303.15 K): 1.4203 ± 0.001
- refractive index ([1]; 313.15 K): 1.4156 ± 0.001
- refractive index ([1]; 323.15 K): 1.4115 ± 0.001
- refractive index ([1]; 333.15 K): 1.4077 ± 0.001
- viscosity ([2]; 293.15 K): 6.887 ± 0.11 mPa·s
- mass density ([2]; 293.15 K): 822.28 ± 0.16 kg/m3
- surface tension liquid-gas ([2]; 298.15 K): 26.23 ± 0.16 mN/m
- viscosity ([2]; 298.15 K): 5.812 ± 0.091 mPa·s
- mass density ([2]; 298.15 K): 818.79 ± 0.16 kg/m3
- viscosity ([2]; 303.15 K): 4.95 ± 0.078 mPa·s
- mass density ([2]; 303.15 K): 815.28 ± 0.16 kg/m3
- viscosity ([2]; 308.15 K): 4.245 ± 0.067 mPa·s
- mass density ([2]; 308.15 K): 811.74 ± 0.16 kg/m3
- viscosity ([2]; 313.15 K): 3.654 ± 0.058 mPa·s
- mass density ([2]; 313.15 K): 808.16 ± 0.16 kg/m3
- viscosity ([2]; 318.15 K): 3.17 ± 0.05 mPa·s
- mass density ([2]; 318.15 K): 804.56 ± 0.16 kg/m3
- viscosity ([2]; 323.15 K): 2.768 ± 0.044 mPa·s
- mass density ([2]; 323.15 K): 800.92 ± 0.16 kg/m3
- viscosity ([2]; 328.15 K): 2.428 ± 0.038 mPa·s
- mass density ([2]; 328.15 K): 797.24 ± 0.16 kg/m3
- viscosity ([2]; 333.15 K): 2.141 ± 0.034 mPa·s
- mass density ([2]; 333.15 K): 793.52 ± 0.16 kg/m3

Structure (SMILES): CCCCCCCO [heptan-1-ol] + CC12CC3CC(C1)CC(C)(C3)C2
- refractive index ([3]; 293.15 K): 1.4236 ± 0.001
- refractive index ([3]; 298.15 K): 1.422 ± 0.001
- refractive index ([3]; 303.15 K): 1.4203 ± 0.001
- refractive index ([3]; 313.15 K): 1.4156 ± 0.001
- refractive index ([3]; 323.15 K): 1.4115 ± 0.001
- refractive index ([3]; 333.15 K): 1.4077 ± 0.001
- mass density ([4]; 293.15 K): 822.28 ± 0.16 kg/m3
- viscosity ([4]; 293.15 K): 6.887 ± 0.11 mPa·s
- surface tension liquid-gas ([4]; 298.15 K): 26.23 ± 0.16 mN/m
- mass density ([4]; 298.15 K): 818.79 ± 0.16 kg/m3
- viscosity ([4]; 298.15 K): 5.812 ± 0.091 mPa·s
- mass density ([4]; 303.15 K): 815.28 ± 0.16 kg/m3
- viscosity ([4]; 303.15 K): 4.95 ± 0.078 mPa·s
- mass density ([4]; 308.15 K): 811.74 ± 0.16 kg/m3
- viscosity ([4]; 308.15 K): 4.245 ± 0.067 mPa·s
- mass density ([4]; 313.15 K): 808.16 ± 0.16 kg/m3
- viscosity ([4]; 313.15 K): 3.654 ± 0.058 mPa·s
- mass density ([4]; 318.15 K): 804.56 ± 0.16 kg/m3
- viscosity ([4]; 318.15 K): 3.17 ± 0.05 mPa·s
- mass density ([4]; 323.15 K): 800.92 ± 0.16 kg/m3
- viscosity ([4]; 323.15 K): 2.768 ± 0.044 mPa·s
- mass density ([4]; 328.15 K): 797.24 ± 0.16 kg/m3
- viscosity ([4]; 328.15 K): 2.428 ± 0.038 mPa·s
- mass density ([4]; 333.15 K): 793.52 ± 0.16 kg/m3
- viscosity ([4]; 333.15 K): 2.141 ± 0.034 mPa·s

Structure (SMILES): CCCCCCCO [heptan-1-ol] + CC12CC3CC(C)(C1)CC(C)(C3)C2
- refractive index ([3]; 293.15 K): 1.4236 ± 0.001
- refractive index ([3]; 298.15 K): 1.422 ± 0.001
- refractive index ([3]; 303.15 K): 1.4203 ± 0.001
- refractive index ([3]; 313.15 K): 1.4156 ± 0.001
- refractive index ([3]; 323.15 K): 1.4115 ± 0.001
- refractive index ([3]; 333.15 K): 1.4077 ± 0.001
- mass density ([4]; 293.15 K): 822.28 ± 0.16 kg/m3
- viscosity ([4]; 293.15 K): 6.887 ± 0.11 mPa·s
- surface tension liquid-gas ([4]; 298.15 K): 26.23 ± 0.16 mN/m
- mass density ([4]; 298.15 K): 818.79 ± 0.16 kg/m3
- viscosity ([4]; 298.15 K): 5.812 ± 0.091 mPa·s
- mass density ([4]; 303.15 K): 815.28 ± 0.16 kg/m3
- viscosity ([4]; 303.15 K): 4.95 ± 0.078 mPa·s
- mass density ([4]; 308.15 K): 811.74 ± 0.16 kg/m3
- viscosity ([4]; 308.15 K): 4.245 ± 0.067 mPa·s
- mass density ([4]; 313.15 K): 808.16 ± 0.16 kg/m3
- viscosity ([4]; 313.15 K): 3.654 ± 0.058 mPa·s
- mass density ([4]; 318.15 K): 804.56 ± 0.16 kg/m3
- viscosity ([4]; 318.15 K): 3.17 ± 0.05 mPa·s
- mass density ([4]; 323.15 K): 800.92 ± 0.16 kg/m3
- viscosity ([4]; 323.15 K): 2.768 ± 0.044 mPa·s
- mass density ([4]; 328.15 K): 797.24 ± 0.16 kg/m3
- viscosity ([4]; 328.15 K): 2.428 ± 0.038 mPa·s
- mass density ([4]; 333.15 K): 793.52 ± 0.16 kg/m3
- viscosity ([4]; 333.15 K): 2.141 ± 0.034 mPa·s

Structure (SMILES): CC12CC3CC(C1)CC(C)(C3)C2 [1,3-dimethyladamantane]
- refractive index ([1]; 293.15 K): 1.4776 ± 0.001
- refractive index ([1]; 298.15 K): 1.4757 ± 0.001
- refractive index ([1]; 303.15 K): 1.4734 ± 0.001
- refractive index ([1]; 313.15 K): 1.4691 ± 0.001
- refractive index ([1]; 323.15 K): 1.4651 ± 0.001
- refractive index ([1]; 333.15 K): 1.461 ± 0.001
- viscosity ([2]; 293.15 K): 3.764 ± 0.059 mPa·s
- mass density ([2]; 293.15 K): 901.58 ± 0.12 kg/m3
- surface tension liquid-gas ([2]; 298.15 K): 27.88 ± 0.15 mN/m
- viscosity ([2]; 298.15 K): 3.345 ± 0.052 mPa·s
- mass density ([2]; 298.15 K): 898.04 ± 0.12 kg/m3
- viscosity ([2]; 303.15 K): 3.004 ± 0.047 mPa·s
- mass density ([2]; 303.15 K): 894.48 ± 0.12 kg/m3
- viscosity ([2]; 308.15 K): 2.711 ± 0.042 mPa·s
- mass density ([2]; 308.15 K): 890.92 ± 0.12 kg/m3
- viscosity ([2]; 313.15 K): 2.458 ± 0.038 mPa·s
- mass density ([2]; 313.15 K): 887.35 ± 0.12 kg/m3
- viscosity ([2]; 318.15 K): 2.237 ± 0.035 mPa·s
- mass density ([2]; 318.15 K): 883.77 ± 0.12 kg/m3
- viscosity ([2]; 323.15 K): 2.045 ± 0.032 mPa·s
- mass density ([2]; 323.15 K): 880.19 ± 0.12 kg/m3
- viscosity ([2]; 328.15 K): 1.876 ± 0.029 mPa·s
- mass density ([2]; 328.15 K): 876.6 ± 0.13 kg/m3
- viscosity ([2]; 333.15 K): 1.728 ± 0.027 mPa·s
- mass density ([2]; 333.15 K): 873.01 ± 0.13 kg/m3
